# Data from EPA's CvTdb concentration-time database.
# Columns and labels:
# Rat [1] = experiment: concentration in plasma after dosing; conditions: 4 h; dosed: Gemfibrozil; 50 mg/kg; oral; Male; Sprague-Dawley
# Rat [2] = experiment: concentration in plasma after dosing; conditions: 24 h; dosed: Gemfibrozil; 4.29 mg/kg; oral; Male; Sprague-Dawley
# Rat [3] = experiment: concentration in plasma after dosing; conditions: 1 h; dosed: Gemfibrozil; 4.29 mg/kg; oral; Male; Sprague-Dawley
# Rat [4] = experiment: concentration in plasma after dosing; conditions: 0.5 h; dosed: Gemfibrozil; 50 mg/kg; oral; Male; Sprague-Dawley
# Rat [5] = experiment: concentration in plasma after dosing; conditions: 18 h; dosed: Gemfibrozil; 100 mg/kg; oral; Male; Sprague-Dawley
# Rat [6] = experiment: concentration in brain after dosing; conditions: 0.75 h; dosed: 2-Methyltetrahydrofuran; 40 mg/kg; iv; Male; Harlan Sprague Dawley
# Rat [7] = experiment: concentration in plasma after dosing; conditions: 7 min; dosed: 2-Methyltetrahydrofuran; 40 mg/kg; iv; Male; Harlan Sprague Dawley
# Rat [8] = experiment: concentration in brain after dosing; conditions: 2 min; dosed: 2-Methyltetrahydrofuran; 40 mg/kg; iv; Female; Harlan Sprague Dawley
# Rat [9] = experiment: concentration in brain after dosing; conditions: 2 h; dosed: 2-Methyltetrahydrofuran; 40 mg/kg; iv; Male; Harlan Sprague Dawley
# Rat [10] = experiment: concentration in plasma after dosing; conditions: 7 min; dosed: 2-Methyltetrahydrofuran; 40 mg/kg; iv; Male; Harlan Sprague Dawley; remark: listed apart in the source
# Rat [11] = experiment: concentration in plasma after dosing; conditions: 0.75 h; dosed: 2-Methyltetrahydrofuran; 40 mg/kg; iv; Male; Harlan Sprague Dawley
# Rat [12] = experiment: concentration in plasma after dosing; conditions: 0.5 h; dosed: 2-Methyltetrahydrofuran; 40 mg/kg; iv; Female; Harlan Sprague Dawley
# Rat [13] = experiment: concentration in plasma after dosing; conditions: 0.75 h; dosed: 2-Methyltetrahydrofuran; 40 mg/kg; iv; Male; Harlan Sprague Dawley; remark: listed apart in the source
# Rat [14] = experiment: concentration in brain after dosing; conditions: 2 min; dosed: 2-Methyltetrahydrofuran; 40 mg/kg; iv; Male; Harlan Sprague Dawley
# Rat [15] = experiment: concentration in plasma after dosing; conditions: 2 h; dosed: 2-Methyltetrahydrofuran; 40 mg/kg; iv; Female; Harlan Sprague Dawley
# Rat [16] = experiment: concentration in kidney after dosing; conditions: 1848 h; dosed: Perfluorooctane Sulfonate; 20 mg/kg; oral; Female; F344
# Rat [17] = experiment: concentration in kidney after dosing; conditions: 864 h; dosed: Perfluorooctane Sulfonate; 20 mg/kg; oral; Male; Harlan Sprague Dawley
# Rat [18] = experiment: concentration in kidney after dosing; conditions: 864 h; dosed: Perfluorooctane Sulfonate; 20 mg/kg; oral; Female; F344
# Rat [19] = experiment: concentration in liver after dosing; conditions: 3360 h; dosed: Perfluorooctane Sulfonate; 20 mg/kg; oral; Male; Harlan Sprague Dawley
# Rat [20] = experiment: concentration in brain after dosing; conditions: 6 h; dosed: Perfluorooctane Sulfonate; 20 mg/kg; oral; Male; Harlan Sprague Dawley
# Rat [21] = experiment: concentration in kidney after dosing; conditions: 1848 h; dosed: Perfluorooctane Sulfonate; 20 mg/kg; oral; Male; Harlan Sprague Dawley
# Rat [22] = experiment: concentration in brain after dosing; conditions: 6 h; dosed: Perfluorooctane Sulfonate; 20 mg/kg; oral; Female; F344
# Rat [23] = experiment: concentration in liver after dosing; conditions: 864 h; dosed: Perfluorooctane Sulfonate; 20 mg/kg; oral; Female; F344
# Rat [24] = experiment: concentration in plasma after dosing; conditions: 3360 h; dosed: Perfluorooctane Sulfonate; 2 mg/kg; oral; Female; Harlan Sprague Dawley
# Rat [25] = experiment: concentration in liver after dosing; conditions: 24 h; dosed: Perfluorooctane Sulfonate; 20 mg/kg; oral; Female; F344
# Rat [26] = experiment: concentration in liver after dosing; conditions: 6 h; dosed: Perfluorohexanoic Acid; 80 mg/kg; oral; Male; Harlan Sprague Dawley
# Rat [27] = experiment: concentration in kidney after dosing; conditions: 0.5 h; dosed: Perfluorohexanoic Acid; 80 mg/kg; oral; Female; Harlan Sprague Dawley
# Rat [28] = experiment: concentration in plasma after dosing; conditions: 1 h; dosed: Perfluorohexanoic Acid; 40 mg/kg; iv; Female; Harlan Sprague-Dawley
# Rat [29] = experiment: concentration in plasma after dosing; conditions: 1.5 h; dosed: Perfluorohexanoic Acid; 40 mg/kg; iv; Male; F344
# Rat [30] = experiment: concentration in plasma after dosing; conditions: 0.75 h; dosed: Perfluorohexanoic Acid; 80 mg/kg; oral; Male; Harlan Sprague Dawley
# Rat [31] = experiment: concentration in liver after dosing; conditions: 1 h; dosed: Perfluorohexanoic Acid; 80 mg/kg; oral; Male; Harlan Sprague Dawley
# Rat [32] = experiment: concentration in plasma after dosing; conditions: 5 min; dosed: Perfluorohexanoic Acid; 40 mg/kg; iv; Male; F344
# Rat [33] = experiment: concentration in kidney after dosing; conditions: 6 h; dosed: Perfluorohexanoic Acid; 80 mg/kg; oral; Female; Harlan Sprague Dawley
# Rat [34] = experiment: concentration in plasma after dosing; conditions: 0.25 h; dosed: Perfluorohexanoic Acid; 40 mg/kg; iv; Male; F344
# Rat [35] = experiment: concentration in kidney after dosing; conditions: 6 h; dosed: Perfluorohexanoic Acid; 80 mg/kg; oral; Male; Harlan Sprague Dawley
# Rat [36] = experiment: concentration in brain after dosing; conditions: 6 h; dosed: Fluorotelomer alcohol 8+2; 24 mg/kg; oral; Male; Harlan Sprague Dawley
# Rat [37] = experiment: concentration in plasma after dosing; conditions: dosed: 678-39-7, 40 mg/kg, iv, Female, Harlan Sprague-Dawley
# Rat [38] = experiment: concentration in brain after dosing; conditions: 1 h; dosed: Fluorotelomer alcohol 8+2; 80 mg/kg; oral; Female; Harlan Sprague Dawley
# Rat [39] = experiment: concentration in plasma after dosing; conditions: dosed: 678-39-7, 40 mg/kg, iv, Female, Harlan Sprague-Dawley; remark: listed apart in the source
# Rat [40] = experiment: concentration in brain after dosing; conditions: 1 h; dosed: Fluorotelomer alcohol 8+2; 24 mg/kg; oral; Male; Harlan Sprague Dawley
smiles,measurement,setting,value
Cc1ccc(C)c(OCCCC(C)(C)C(=O)O)c1 [Gemfibrozil],concentration in plasma,Rat [1],5620 ng/mL
same,concentration in plasma,Rat [2],159 ng/mL
same,concentration in plasma,Rat [3],258 ng/mL
same,concentration in plasma,Rat [4],7800 ng/mL
same,concentration in plasma,Rat [5],3300 ng/mL
CC1CCCO1 (configuration not stated) [2-Methyltetrahydrofuran],concentration in brain,Rat [6],15800 ng/mL
same,concentration in plasma,Rat [7],41500 ng/mL
same,concentration in brain,Rat [8],38000 ng/mL
same,concentration in brain,Rat [9],7820 ng/mL
same,concentration in plasma,Rat [10],45700 ng/mL
same,concentration in plasma,Rat [11],23700 ng/mL
same,concentration in plasma,Rat [12],28500 ng/mL
same,concentration in plasma,Rat [13],26900 ng/mL
same,concentration in brain,Rat [14],39000 ng/mL
same,concentration in plasma,Rat [15],3580 ng/mL
O=S(=O)([O-])C(F)(F)C(F)(F)C(F)(F)C(F)(F)C(F)(F)C(F)(F)C(F)(F)C(F)(F)F [Perfluorooctane Sulfonate],concentration in kidney,Rat [16],22700 ng/g
same,concentration in kidney,Rat [17],19300 ng/g
same,concentration in kidney,Rat [18],38400 ng/g
same,concentration in liver,Rat [19],8480 ng/g
same,concentration in brain,Rat [20],4810 ng/g
same,concentration in kidney,Rat [21],4810 ng/g
same,concentration in brain,Rat [22],3430 ng/g
same,concentration in liver,Rat [23],71400 ng/g
same,concentration in plasma,Rat [24],144 ng/mL
same,concentration in liver,Rat [25],167000 ng/g
O=C(O)C(F)(F)C(F)(F)C(F)(F)C(F)(F)C(F)(F)F [Perfluorohexanoic Acid],concentration in liver,Rat [26],15400 ng/g
same,concentration in kidney,Rat [27],48100 ng/g
same,concentration in plasma,Rat [28],98.9 ng/mL
same,concentration in plasma,Rat [29],8490 ng/mL
same,concentration in plasma,Rat [30],134000 ng/mL
same,concentration in liver,Rat [31],88800 ng/g
same,concentration in plasma,Rat [32],540 ng/mL
same,concentration in kidney,Rat [33],2180 ng/g
same,concentration in plasma,Rat [34],6480 ng/mL
same,concentration in kidney,Rat [35],16900 ng/g
O=C(O)CCC(F)(F)C(F)(F)C(F)(F)C(F)(F)C(F)(F)C(F)(F)C(F)(F)F [Fluorotelomer acid 7+3],concentration in brain,Rat [36],179 ng/g
same,concentration in plasma,Rat [37]; 0.75 h,1830 ng/mL
same,concentration in plasma,Rat [37]; 12 h,863 ng/mL
same,concentration in brain,Rat [38],252 ng/g
same,concentration in plasma,Rat [39]; 0.75 h,929 ng/mL
same,concentration in plasma,Rat [39]; 12 h,368 ng/mL
same,concentration in brain,Rat [40],160 ng/g
